Assay results published in patent publication US20120316199A1, “COMPOSITIONS AND METHODS FOR TREATING, CONTROLLING, REDUCING, OR AMELIORATING INFLAMMATORY PAIN” (priority 2011, published 2012).

Test system: intraocular pressure (IOP)
Assay: Intraocular pressure in New Zealand White rabbits, topical dosing four times daily
Type: in vivo
Conditions: untreated left eyes
Description: On Days 1-31, animals received daily topical doses of the appropriate test article into the right eye. Animals were dosed four times per day, with doses administered 2 hours apart. Doses were administered using a calibrated 50-μL pipette. The eyelids were held close for 10 seconds immediately following dosing. The time of each dose administration was recorded.
Intraocular pressure (“IOP”) was determined for both eyes of each animal on Days 3, 5, 10, 12, 16, 18, 22, 24, 26, 30, and 32. IOP was evaluated with a Medtronic Solan, Model 30 classic pneumatonometer. Proparacaine hydrochloride 0.5% (1 drop) was delivered to each eye prior to IOP measurement. IOP was measured on Monday. Wednesday, and Friday of each week. A two-point diurnal curve was established: IOP was recorded at 8 a.m. and 12 p.m. on Day 3, and at 8 a.m. and 2 p.m. on later days, with a ±1 hour range for each of these times. The time of the measurements was recorded.
Descriptive statistics were prepared for IOP data of each treatment group (left and right eyes separately) at each measurement interval. The statistics included the number of observations (“N”) mean, standard deviation (“STD”), and standard error (“SEM”). Statistical analyses were conducted on IOP results using Statistical Analysis Systems (SAS Institute. Inc., Cary, N.C. V8.0). Parameters were evaluated using analysis of variance/GLM Procedure followed by Tukey's Standardized Range Test (Tukey, 1985) for post hoc comparisons of group means. The level of significance was set at a probability of p<0.05 for all statistical procedures. Group IOP means were compared at each interval, with left and right eyes compared separately.

Cc1ccc2c(NC[C@](O)(CC(C)(C)c3cc(F)cc4c3OCC4)C(F)(F)F)cccc2n1 [BOL-303242-X, mapracorat]
Intraocular Pressure, MEAN (A.M. readings, Day 16, 1 mg/g (Group D)): 21.6 mmHg | Intraocular Pressure, MEAN (A.M. readings, Day 16, 5 mg/g (Group C)): 23.4 mmHg | Intraocular Pressure, MEAN (A.M. readings, Day 16, 10 mg/g (Group B)): 22.9 mmHg | Intraocular Pressure, MEAN (A.M. readings, Day 18, 1 mg/g (Group D)): 23.3 mmHg | Intraocular Pressure, MEAN (A.M. readings, Day 18, 5 mg/g (Group C)): 21.9 mmHg | Intraocular Pressure, MEAN (A.M. readings, Day 18, 10 mg/g (Group B)): 21.2 mmHg | Intraocular Pressure, MEAN (A.M. readings, Day 22, 1 mg/g (Group D)): 22.4 mmHg | Intraocular Pressure, MEAN (A.M. readings, Day 22, 5 mg/g (Group C)): 21.6 mmHg | Intraocular Pressure, MEAN (A.M. readings, Day 22, 10 mg/g (Group B)): 21.8 mmHg | Intraocular Pressure, MEAN (A.M. readings, Day 24, 1 mg/g (Group D)): 22.4 mmHg | Intraocular Pressure, MEAN (A.M. readings, Day 24, 5 mg/g (Group C)): 22.1 mmHg | Intraocular Pressure, MEAN (A.M. readings, Day 24, 10 mg/g (Group B)): 20.2 mmHg | Intraocular Pressure, MEAN (A.M. readings, Day 26, 1 mg/g (Group D)): 22.9 mmHg | Intraocular Pressure, MEAN (A.M. readings, Day 26, 5 mg/g (Group C)): 21.7 mmHg | Intraocular Pressure, MEAN (A.M. readings, Day 26, 10 mg/g (Group B)): 21.7 mmHg | Intraocular Pressure, MEAN (A.M. readings, Day 30, 1 mg/g (Group D)): 23.4 mmHg | Intraocular Pressure, MEAN (A.M. readings, Day 30, 5 mg/g (Group C)): 22.6 mmHg | Intraocular Pressure, MEAN (A.M. readings, Day 30, 10 mg/g (Group B)): 22.7 mmHg | Intraocular Pressure, MEAN (A.M. readings, Day 32, 1 mg/g (Group D)): 24.1 mmHg | Intraocular Pressure, MEAN (A.M. readings, Day 32, 5 mg/g (Group C)): 23.1 mmHg | Intraocular Pressure, MEAN (A.M. readings, Day 32, 10 mg/g (Group B)): 22.9 mmHg | Intraocular Pressure, MEAN (A.M. readings, Pre-Study, 1 mg/g (Group D)): 23.9 mmHg | Intraocular Pressure, MEAN (A.M. readings, Pre-Study, 5 mg/g (Group C)): 24.2 mmHg | Intraocular Pressure, MEAN (A.M. readings, Pre-Study, 10 mg/g (Group B)): 23.8 mmHg | Intraocular Pressure, MEAN (P.M. readings, Day 3, 1 mg/g (Group D)): 25.0 mmHg | Intraocular Pressure, MEAN (P.M. readings, Day 3, 5 mg/g (Group C)): 23.9 mmHg | Intraocular Pressure, MEAN (P.M. readings, Day 3, 10 mg/g (Group B)): 23.3 mmHg | Intraocular Pressure, MEAN (P.M. readings, Day 5, 1 mg/g (Group D)): 24.7 mmHg | Intraocular Pressure, MEAN (P.M. readings, Day 5, 5 mg/g (Group C)): 24.8 mmHg | Intraocular Pressure, MEAN (P.M. readings, Day 5, 10 mg/g (Group B)): 25.2 mmHg | Intraocular Pressure, MEAN (P.M. readings, Day 10, 1 mg/g (Group D)): 24.9 mmHg | Intraocular Pressure, MEAN (P.M. readings, Day 10, 5 mg/g (Group C)): 24.6 mmHg | Intraocular Pressure, MEAN (P.M. readings, Day 10, 10 mg/g (Group B)): 23.5 mmHg | Intraocular Pressure, MEAN (P.M. readings, Day 12, 1 mg/g (Group D)): 23.7 mmHg | Intraocular Pressure, MEAN (P.M. readings, Day 12, 5 mg/g (Group C)): 23.3 mmHg | Intraocular Pressure, MEAN (P.M. readings, Day 12, 10 mg/g (Group B)): 24.1 mmHg | Intraocular Pressure, MEAN (P.M. readings, Day 16, 1 mg/g (Group D)): 21.9 mmHg | Intraocular Pressure, MEAN (P.M. readings, Day 16, 5 mg/g (Group C)): 20.4 mmHg | Intraocular Pressure, MEAN (P.M. readings, Day 16, 10 mg/g (Group B)): 21.4 mmHg | Intraocular Pressure, MEAN (P.M. readings, Day 18, 1 mg/g (Group D)): 22.7 mmHg | Intraocular Pressure, MEAN (P.M. readings, Day 18, 5 mg/g (Group C)): 21.9 mmHg | Intraocular Pressure, MEAN (P.M. readings, Day 18, 10 mg/g (Group B)): 22.1 mmHg | Intraocular Pressure, MEAN (P.M. readings, Day 22, 1 mg/g (Group D)): 22.1 mmHg | Intraocular Pressure, MEAN (P.M. readings, Day 22, 5 mg/g (Group C)): 22.1 mmHg | Intraocular Pressure, MEAN (P.M. readings, Day 22, 10 mg/g (Group B)): 22.6 mmHg | Intraocular Pressure, MEAN (P.M. readings, Day 24, 1 mg/g (Group D)): 22.9 mmHg | Intraocular Pressure, MEAN (P.M. readings, Day 24, 5 mg/g (Group C)): 22.2 mmHg | Intraocular Pressure, MEAN (P.M. readings, Day 24, 10 mg/g (Group B)): 22.8 mmHg | Intraocular Pressure, MEAN (P.M. readings, Day 26, 1 mg/g (Group D)): 22.1 mmHg | Intraocular Pressure, MEAN (P.M. readings, Day 26, 5 mg/g (Group C)): 22.3 mmHg | Intraocular Pressure, MEAN (P.M. readings, Day 26, 10 mg/g (Group B)): 21.4 mmHg | Intraocular Pressure, MEAN (P.M. readings, Day 30, 10 mg/g (Group B)): 21.7 mmHg
